Our source for the EC50 and Emax values is US20240208992A1, “MACROCYCLES AS CFTR MODULATORS” (Idorsia Pharmaceuticals Ltd, priority 2021, published 2024).

The assay has as its target human F508del-CFTR (Homo sapiens, UniProt P13569, DEL508-508). The assay can be described thus: F508del-CFTR cell surface expression (corrector activity), DiscoveRx ß-galactosidase complementation chemiluminescence assay in recombinant U2OS cell line.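 On all read-outs here: U2OS cells co-expressing ProLink-tagged F508del-CFTR and a membrane-anchored enzyme acceptor, where more surface CFTR restores β-galactosidase activity measured by chemiluminescence.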 The settings on record: U2OS cell line, 16h compound incubation; for EC50: EC50, F508del-CFTR cell surface expression, geomean values; for Emax: U2OS, in relation to the Emax of the corrector lumacaftor (=100%), arithmetic mean values.

Chain of human F508del-CFTR (P13569 with tags, fused parts or gaps DEL508-508): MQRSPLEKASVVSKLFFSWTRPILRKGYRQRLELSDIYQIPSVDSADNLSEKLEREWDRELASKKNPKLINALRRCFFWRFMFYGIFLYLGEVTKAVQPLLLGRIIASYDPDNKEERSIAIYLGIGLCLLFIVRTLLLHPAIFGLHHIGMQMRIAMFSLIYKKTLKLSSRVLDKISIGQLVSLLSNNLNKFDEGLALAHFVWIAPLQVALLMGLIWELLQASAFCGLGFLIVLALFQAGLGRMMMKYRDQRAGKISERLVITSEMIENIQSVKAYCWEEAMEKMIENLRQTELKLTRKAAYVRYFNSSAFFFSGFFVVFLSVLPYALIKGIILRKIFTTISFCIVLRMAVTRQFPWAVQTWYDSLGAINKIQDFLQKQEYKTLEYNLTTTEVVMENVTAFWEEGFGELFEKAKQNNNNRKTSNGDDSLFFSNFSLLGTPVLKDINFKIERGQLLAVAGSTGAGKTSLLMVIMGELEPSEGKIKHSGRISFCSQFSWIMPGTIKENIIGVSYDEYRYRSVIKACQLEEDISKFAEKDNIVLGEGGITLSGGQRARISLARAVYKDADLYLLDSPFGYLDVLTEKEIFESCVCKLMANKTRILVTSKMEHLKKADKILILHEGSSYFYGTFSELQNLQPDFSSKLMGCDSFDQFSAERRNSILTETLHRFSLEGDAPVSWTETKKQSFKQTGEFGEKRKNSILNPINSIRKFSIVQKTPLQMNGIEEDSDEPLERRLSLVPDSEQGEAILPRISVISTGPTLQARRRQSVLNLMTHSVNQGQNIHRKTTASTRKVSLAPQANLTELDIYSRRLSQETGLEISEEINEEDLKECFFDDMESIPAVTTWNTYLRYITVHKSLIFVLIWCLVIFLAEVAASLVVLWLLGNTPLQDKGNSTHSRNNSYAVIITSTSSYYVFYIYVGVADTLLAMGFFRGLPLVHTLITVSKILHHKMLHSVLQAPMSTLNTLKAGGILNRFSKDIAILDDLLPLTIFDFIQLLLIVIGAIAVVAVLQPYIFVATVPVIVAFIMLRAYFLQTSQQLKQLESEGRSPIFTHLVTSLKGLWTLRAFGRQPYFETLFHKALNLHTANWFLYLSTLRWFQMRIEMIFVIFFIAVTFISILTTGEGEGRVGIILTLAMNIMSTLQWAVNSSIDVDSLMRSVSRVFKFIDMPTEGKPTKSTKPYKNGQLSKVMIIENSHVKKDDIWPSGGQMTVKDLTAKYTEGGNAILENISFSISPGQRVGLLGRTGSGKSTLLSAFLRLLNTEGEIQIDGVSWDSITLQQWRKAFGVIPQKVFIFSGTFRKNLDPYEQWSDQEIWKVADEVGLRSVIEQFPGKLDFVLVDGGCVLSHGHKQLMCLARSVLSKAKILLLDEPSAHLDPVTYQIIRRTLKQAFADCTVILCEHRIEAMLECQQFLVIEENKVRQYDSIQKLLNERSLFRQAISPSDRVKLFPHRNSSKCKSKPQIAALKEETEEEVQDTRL

Turning to `COc1cccc2c1C(=O)N[C@H](C(=O)NCCc1ccc3c(c1)CCCO3)CC(=O)N(C)[C@@H](CC(C)C)C(=O)N(CCC1CCCCC1)CC(=O)N[C@H](Cc1ccccc1)CO2` (mixture of isomers) [Example 11, (3R,9S,13RS)-3-benzyl-N-(2-(chroman-6-yl)ethyl)-7-(2-cyclohexylethyl)-9-isobutyl-16-methoxy-10-methyl-5,8,11,15-tetraoxo-2,3,4,5,6,7,8,9,10,11,12,13,14,15-tetradecahydrobenzo[p][1]oxa[4,7,10,14]tetraazacycloheptadecine-13-carboxamide], the EC50 amounted to 182 nM. Consider `COc1cccc2c1C(=O)N[C@H](C(=O)NCCc1ccc3c(c1)OCCCO3)CC(=O)N(C)[C@@H](CC(C)C)C(=O)N(CCC1CCCCC1)CC(=O)N[C@H](Cc1ccccc1)CO2` (mixture of isomers) [Example 12, (3R,9S,13RS)-3-benzyl-7-(2-cyclohexylethyl)-N-(2-(3,4-dihydro-2H-benzo[b][1,4]dioxepin-7-yl)ethyl)-9-isobutyl-16-methoxy-10-methyl-5,8,11,15-tetraoxo-2,3,4,5,6,7,8,9,10,11,12,13,14,15-tetradecahydrobenzo[p][1]oxa[4,7,10,14]tetraazacycloheptadecine-13-carboxamide], for which the EC50 is 270 nM. Take `COc1cccc2c1C(=O)N[C@H](C(=O)NCCc1ccc3c(c1)OCC3)CC(=O)N(C)[C@@H](CC(C)C)C(=O)N(CCC1CCCCC1)CC(=O)N[C@H](Cc1ccccc1)CO2` (mixture of isomers) [Example 15, (3R,9S,13RS)-3-benzyl-7-(2-cyclohexylethyl)-N-(2-(2,3-dihydrobenzofuran-6-yl)ethyl)-9-isobutyl-16-methoxy-10-methyl-5,8,11,15-tetraoxo-2,3,4,5,6,7,8,9,10,11,12,13,14,15-tetradecahydrobenzo[p][1]oxa[4,7,10,14]tetraazacycloheptadecine-13-carboxamide]: the EC50 was found to be 187 nM. Regarding `COc1cccc2c1C(=O)N[C@H](C(=O)NCCc1nc3ccccc3o1)CC(=O)N(C)[C@@H](CC(C)C)C(=O)N(CCC1CCCCC1)CC(=O)N[C@H](Cc1ccccc1)CO2` (mixture of isomers) [Example 16, (3R,9S,13RS)-N-(2-(benzo[d]oxazol-2-yl)ethyl)-3-benzyl-7-(2-cyclohexylethyl)-9-isobutyl-16-methoxy-10-methyl-5,8,11,15-tetraoxo-2,3,4,5,6,7,8,9,10,11,12,13,14,15-tetradecahydrobenzo[p][1]oxa[4,7,10,14]tetraazacycloheptadecine-13-carboxamide], the concentration for a half-maximal effect (EC50) was determined as 269 nM. For `Cc1csc(CCNC(=O)[C@@H]2CC(=O)N(C)[C@@H](CC(C)C)C(=O)N3CCCC[C@@H]3C(=O)N[C@H](Cc3ccccc3)COc3ccc4ncn(C)c4c3C(=O)N2)n1` (mixture of isomers) [Example 23, (8RS,12S,18aR,21R)-21-benzyl-12-isobutyl-5,11-dimethyl-N-(2-(4-methylthiazol-2-yl)ethyl)-6,10,13,19-tetraoxo-6,7,8,9,10,11,12,13,16,17,18,18a,19,20,21,22-hexadecahydro-5H,15H-imidazo[4′,5′:5,6]benzo[1,2-p]pyrido[2,1-f][1]oxa[4,7,10,14]tetraazacycloheptadecine-8-carboxamide], the EC50 came to 991 nM. `CC(C)C[C@H]1C(=O)N2CCCC[C@@H]2C(=O)N[C@H](Cc2ccccc2)COc2ccc3ncn(C)c3c2C(=O)N[C@H](C(=O)NCCc2cccc(-n3nccn3)c2)CC(=O)N1C` (mixture of isomers) [Example 28, (8RS,12S,18aR,21R)-N-(3-(2H-1,2,3-triazol-2-yl)phenethyl)-21-benzyl-12-isobutyl-5,11-dimethyl-6,10,13,19-tetraoxo-6,7,8,9,10,11,12,13,16,17,18,18a,19,20,21,22-hexadecahydro-5H,15H-imidazo[4′,5′:5,6]benzo[1,2-p]pyrido[2,1-f][1]oxa[4,7,10,14]tetraazacycloheptadecine-8-carboxamide]: the EC50 was 603 nM. Turning to `COc1cccc(CCNC(=O)[C@@H]2CC(=O)N(C)[C@@H](CC(C)C)C(=O)N(C)CC(=O)N[C@H](Cc3ccccc3)COc3cc4c(cc3C(=O)N2)OCO4)c1OC` (mixture of isomers) [Example 151, (7R,13S,17RS)-7-benzyl-N-(2,3-dimethoxyphenethyl)-13-isobutyl-11,14-dimethyl-9,12,15,19-tetraoxo-6,7,8,9,10,11,12,13,14,15,16,17,18,19-tetradecahydro-[1,3]dioxolo[4′,5′:4,5]benzo[1,2-p][1]oxa[4,7,10,14]tetraazacycloheptadecine-17-carboxamide], the concentration giving a half-maximal response (EC50) amounted to 759 nM.

For `COc1cc2c(cc1OC)C(=O)N[C@H](C(=O)NCCc1ccc3c(c1)CCO3)CC(=O)N(C)[C@@H](CC(C)C)C(=O)N(C)CC(=O)N[C@H](Cc1ccccc1)CO2` (mixture of isomers) [Example 152, (3R,9S,13RS)-3-benzyl-N-(2-(2,3-dihydrobenzofuran-5-yl)ethyl)-9-isobutyl-17,18-dimethoxy-7,10-dimethyl-5,8,11,15-tetraoxo-2,3,4,5,6,7,8,9,10,11,12,13,14,15-tetradecahydrobenzo[p][1]oxa[4,7,10,14]tetraazacycloheptadecine-13-carboxamide], the EC50 came to 668 nM. For the molecule `COc1cc2c(cc1OC)C(=O)N[C@H](C(=O)NCCc1ccc3c(c1)OCO3)CC(=O)N(C)[C@@H](CC(C)C)C(=O)N(CCC(C)(C)OC)CC(=O)N[C@H](Cc1ccccc1)CO2` (mixture of isomers) [Example 156, (3R,9S,13RS)-N-(2-(benzo[d][1,3]dioxol-5-yl)ethyl)-3-benzyl-9-isobutyl-17,18-dimethoxy-7-(3-methoxy-3-methylbutyl)-10-methyl-5,8,11,15-tetraoxo-2,3,4,5,6,7,8,9,10,11,12,13,14,15-tetradecahydrobenzo[p][1]oxa[4,7,10,14]tetraazacycloheptadecine-13-carboxamide], the EC50 is 647 nM and the Emax is 123%. `CC(C)C[C@H]1C(=O)N(C[C@H]2CCCCO2)CC(=O)N[C@H](Cc2ccccc2)COc2ccc3ccccc3c2C(=O)N[C@H](C(=O)NCCc2ccc3c(c2)OCO3)CC(=O)N1C` (mixture of isomers) [Example 162, (3RS,7S,13R)-N-(2-(benzo[d][1,3]dioxol-5-yl)ethyl)-13-benzyl-7-isobutyl-6-methyl-1,5,8,11-tetraoxo-9-(((R)-tetrahydro-2H-pyran-2-yl)methyl)-1,2,3,4,5,6,7,8,9,10,11,12,13,14-tetradecahydronaphtho[1,2-p][1]oxa[4,7,10,14]tetraazacycloheptadecine-3-carboxamide]: the EC50 amounted to 472 nM. On the same count and under the same terms, the figure for `COc1cccc(CCNC(=O)[C@@H]2CC(=O)N(C)[C@@H](CC(C)C)C(=O)N(C[C@H]3CCCCO3)CC(=O)N[C@H](Cc3ccccc3)COc3ccc4ccccc4c3C(=O)N2)c1` (mixture of isomers) [Example 164, (3RS,7S,13R)-13-benzyl-7-isobutyl-N-(3-methoxyphenethyl)-6-methyl-1,5,8,11-tetraoxo-9-(((R)-tetrahydro-2H-pyran-2-yl)methyl)-1,2,3,4,5,6,7,8,9,10,11,12,13,14-tetradecahydronaphtho[1,2-p][1]oxa[4,7,10,14]tetraazacycloheptadecine-3-carboxamide] is 519 nM.

`COc1cccc2c1C(=O)N[C@H](C(=O)NCCc1ccc3c(c1)OCO3)CC(=O)N(C)[C@@H](CC1CC1)C(=O)N(CCC1CCCCC1)CC(=O)N[C@H](Cc1ccccc1)CO2` (mixture of isomers) [Example 274, (3R,9S,13RS)-N-(2-(benzo[d][1,3]dioxol-5-yl)ethyl)-3-benzyl-7-(2-cyclohexylethyl)-9-(cyclopropylmethyl)-16-methoxy-10-methyl-5,8,11,15-tetraoxo-2,3,4,5,6,7,8,9,10,11,12,13,14,15-tetradecahydrobenzo[p][1]oxa[4,7,10,14]tetraazacycloheptadecine-13-carboxamide]: the EC50 was 288 nM and the Emax was determined as 186%.

On to `CN1C(=O)C[C@@H](C(=O)NCCc2ccc3c(c2)OCO3)NC(=O)c2c(ccc3ccccc23)OC[C@@H](Cc2ccccc2)NC(=O)CN(C[C@@H]2CCCCO2)C(=O)[C@@H]1CC1CCCC1` (mixture of isomers) [Example 284, (3RS,7S,13R)-N-(2-(benzo[d][1,3]dioxol-5-yl)ethyl)-13-benzyl-7-(cyclopentylmethyl)-6-methyl-1,5,8,11-tetraoxo-9-(((S)-tetrahydro-2H-pyran-2-yl)methyl)-1,2,3,4,5,6,7,8,9,10,11,12,13,14-tetradecahydronaphtho[1,2-p][1]oxa[4,7,10,14]tetraazacycloheptadecine-3-carboxamide], for which the EC50 amounted to 337 nM.

`CN1C(=O)C[C@@H](C(=O)NCCc2ccc3c(c2)OCO3)NC(=O)c2c(ccc3ccccc23)OC[C@@H](Cc2ccccc2)NC(=O)CN(C[C@@H]2CCCCO2)C(=O)[C@@H]1CC1CCCCC1` (mixture of isomers) [Example 285, (3RS,7S,13R)-N-(2-(benzo[d][1,3]dioxol-5-yl)ethyl)-13-benzyl-7-(cyclohexylmethyl)-6-methyl-1,5,8,11-tetraoxo-9-(((S)-tetrahydro-2H-pyran-2-yl)methyl)-1,2,3,4,5,6,7,8,9,10,11,12,13,14-tetradecahydronaphtho[1,2-p][1]oxa[4,7,10,14]tetraazacycloheptadecine-3-carboxamide]: the EC50 amounted to 239 nM. Take `CN1C(=O)C[C@@H](C(=O)NCCc2ccc3c(c2)OCO3)NC(=O)c2c(ccc3ccccc23)OC[C@@H](Cc2ccccc2)NC(=O)CN(C[C@H]2CCCCO2)C(=O)[C@@H]1CC1CCCC1` (mixture of isomers) [Example 286, (3RS,7S,13R)-N-(2-(benzo[d][1,3]dioxol-5-yl)ethyl)-13-benzyl-7-(cyclopentylmethyl)-6-methyl-1,5,8,11-tetraoxo-9-(((R)-tetrahydro-2H-pyran-2-yl)methyl)-1,2,3,4,5,6,7,8,9,10,11,12,13,14-tetradecahydronaphtho[1,2-p][1]oxa[4,7,10,14]tetraazacycloheptadecine-3-carboxamide]: the EC50 amounted to 177 nM.

In general, EC50 refers to the concentration at which the effect is half-maximal. As usually defined, the Emax is the size of the effect at its maximum, as opposed to the concentration needed.
